Test results published in patent US20240124442A1, “TRICYCLIC-AMIDO-BICYCLIC PRMT5 INHIBITORS” (AMGEN INC., priority 2021, published 2024).

Key:
HCT116 MTAP null cells = assay: HCT116 MTAP null cell line proliferation / cell viability (CellTiter-Glo, 6 days); type: cell-based; conditions: 144 h; HCT116 MTAP null cells, 6 days treatment, CellTiter-Glo cell viability; read-out: HCT-116 MTAP null IC50
Method: (§1) HCT116 Proliferation Activity
(§2) To assess selective anti-proliferative activity of compounds of the invention in cells that have loss expression of MTAP, an HCT-116 isogenic cell line pair was utilized where one cell line was engineered to genetically knockout both MTAP alleles. Cell viability was then assessed in both the parent HCT-116 cell line and the MTAP null cell line after 6 days of treatment with compounds of the present invention. Selective anti-proliferative activity in the MTAP null cell line indicates MTA-cooperative inhibition of PRMT5 and ability to inhibit growth of cancer cells that have loss of MTAP.
(§3) HCT116 MTAP null and WT cells were seeded in 96-well tissue culture plates in RPMI 1640 media+10% fetal bovine serum. Plates were incubated overnight at 37° C. and 5% CO2. Cells were then treated with an 8- or 9-point serial dilution of compound, using a top concentration of 1, or 10 μM, 1:3 serial dilution steps and, a DMSO-only control. Cells were incubated in the presence of drug for 6 days. Effects on cell viability were measured with the CellTiter-Glo® Luminescent Cell Viability Assay (Promega) per manufacturer's recommendation. Assay plates were read on an EnVision™ Multilabel Reader using the Ultra-Sensitive luminescence module. IC50 values were calculated with GraphPad Prism v 5.01 using symmetrical sigmoidal dose-response least squares fit with Hill slope fixed to −1 and top constrain to 100% or GeneData Screener using a 4-parameter logistic model to fit dose response curves.
(§4) Alternatively, compounds could be assayed with a 384 well plate format:
(§5) Compounds were pre-spotted into 384 well plates with a 22-point serial dilution of compound, using a top concentration of 10 or 50 μM, 1:2 serial dilution steps and, a DMSO-only control. HCT116 MTAP null and WT cells were then seeded as above and after 6 days effects on cell viability were measured with the CellTiter-Glo® Luminescent Cell Viability Assay (Promega). Assay plates were read as above and IC50 values were calculated with GeneData Screener using a 4-parameter logistic model to fit dose response curves. The reported IC50 represents the value where the curve transits 50% of control.

HCT116 WT cells = assay: HCT116 WT (parent) cell line proliferation / cell viability (CellTiter-Glo, 6 days); type: cell-based; conditions: Homo sapiens, HCT-116, 144 h, 6 days treatment
Method: as §1, §2, §3, §4, §5

| Compound | IC50 (HCT116 MTAP null cells) | IC50 (HCT116 WT cells) |
| --- | --- | --- |
| CN(C(=O)c1cc2c(cc1F)nc(N)c1cnn(C)c12)C1COc2cc(C(F)(F)F)cc(F)c21 (racemic) [Example 245, 4-amino-7-fluoro-N-((3R)-4-fluoro-6-(trifluoromethyl)-2,3-dihydro-1-benzofuran-3-yl)-N,1-dimethyl-1H-pyrazolo-[4,3-c]quinoline-8-carboxamide and 4-amino-7-fluoro-N-((3S)-4-fluoro-6-(trifluoromethyl)-2,3-dihydro-1-benzofuran-3-yl)-N,1-dimethyl-1H-pyrazolo[4,3-c]quinoline-8-carboxamide] | 19 nM | 880 nM |
| CN(C(=O)c1cc2c(cc1F)nc(N)c1cnn(C)c12)C1c2ccc(C(F)(F)F)nc2CC1(F)F (racemic) [Example 246, 4-amino-N-((5R)-6,6-difluoro-2-(trifluoromethyl)-6,7-dihydro-5H-cyclopenta[b]-pyridin-5-yl)-7-fluoro-N,1-dimethyl-1H-pyrazolo[4,3-c]-quinoline-8-carboxamide and 4-amino-N-((5S)-6,6-difluoro-2-(trifluoromethyl)-6,7-dihydro-5H-cyclopenta[b]pyridin-5-yl)-7-fluoro-N,1-dimethyl-1H-pyrazolo[4,3-c]quinoline-8-carboxamide] | 610 nM | 8480 nM |
| CN(C(=O)c1cc2c(cc1Cl)nc(N)c1cnn(C)c12)C1CCc2nc(C(F)(F)F)ccc21 (racemic) [Example 248, 4-amino-7-chloro-N,1-dimethyl-N-((5R)-2-(trifluoromethyl)-6,7-dihydro-5H-cyclopenta[b]-pyridin-5-yl)-1H-pyrazolo[4,3-c]quinoline-8-carboxamide and 4-amino-7-chloro-N,1-dimethyl-N-((5S)-2-(trifluoromethyl)-6,7-dihydro-5H-cyclopenta[b]-pyridin-5-yl)-1H-pyrazolo[4,3-c]quinoline-8-carboxamide] | 18 nM | 635 nM |
| CN(C(=O)c1cc2c3c(c(N)nc2cc1F)COC3)C1CCOc2cc(C(F)(F)F)ccc21 (racemic) [Example 272, 4-amino-7-fluoro-N-methyl-N-((4R)-7-(trifluoromethyl)-3,4-dihydro-2H-chromen-4-yl)-1,3-dihydrofuro[3,4-c]quinoline-8-carboxamide and 4-amino-7-fluoro-N-methyl-N-((4S)-7-(trifluoromethyl)-3,4-dihydro-2H-chromen-4-yl)-1,3-dihydrofuro[3,4-c]quinoline-8-carboxamide] | 206 nM | 5390 nM |
| CN(C(=O)c1cc2c(cc1F)nc(N)c1cnn(C)c12)C1CCOc2cc(C(F)(F)F)ccc21 (racemic) [Example 290, 4-amino-7-fluoro-N,1-dimethyl-N-((4R)-7-(trifluoromethyl)-3,4-dihydro-2H-chromen-4-yl)-1H-pyrazolo[4,3-c]quinoline-8-carboxamide and 4-amino-7-fluoro-N,1-dimethyl-N-((4S)-7-(trifluoromethyl)-3,4-dihydro-2H-chromen-4-yl)-1H-pyrazolo[4,3-c]quinoline-8-carboxamide] | 61 nM | 2460 nM |
| CN(C(=O)c1ccc2nc(N)c3c(c2c1)COC3)C1CCc2nc(C(F)(F)F)ccc21 (racemic) [Example 444, 4-amino-N-methyl-N-((5R)-2-(trifluoromethyl)-6,7-dihydro-5H-cyclopenta[b]pyridin-5-yl)-1,3-dihydrofuro[3,4-c]quinoline-8-carboxamide and 4-amino-N-methyl-N-((5S)-2-(trifluoromethyl)-6,7-dihydro-5H-cyclopenta[b]pyridin-5-yl)-1,3-dihydrofuro[3,4-c]quinoline-8-carboxamide] | 348 nM | 12000 nM |
| CN(C(=O)c1ccc2nc(N)c3c(c2c1)COC3)C1COc2cc(C(F)(F)F)ncc21 (racemic) [Example 445, 4-amino-N-methyl-N-((3R)-6-(trifluoromethyl)-2,3-dihydrofuro[3,2-c]pyridin-3-yl)-1,3-dihydrofuro[3,4-c]quinoline-8-carboxamide and 4-amino-N-methyl-N-((3S)-6-(trifluoromethyl)-2,3-dihydrofuro[3,2-c]pyridin-3-yl)-1,3-dihydrofuro[3,4-c]quinoline-8-carboxamide] | 316 nM | 12600 nM |
| Nc1nc2ccc(C(=O)N(C3CC3)C3COc4cc(C(F)(F)F)ccc43)cc2c2c1COC2 (racemic) [Example 449, 4-amino-N-cyclopropyl-N-((3R)-6-(trifluoromethyl)-2,3-dihydro-1-benzofuran-3-yl)-1,3-dihydrofuro[3,4-c]quinoline-8-carboxamide and 4-amino-N-cyclopropyl-N-((3S)-6-(trifluoromethyl)-2,3-dihydro-1-benzofuran-3-yl)-1,3-dihydrofuro[3,4-c]quinoline-8-carboxamide] | 96 nM | 3350 nM |
| CN(C(=O)c1ccc2nc(N)c3c(c2c1)COC3)C1COc2cc(Br)cnc21 (racemic) [Example 450, 4-amino-N-((3R)-6-bromo-2,3-dihydrofuro[3,2-b]pyridin-3-yl)-N-methyl-1,3-dihydrofuro[3,4-c]quinoline-8-carboxamide and 4-amino-N-((3S)-6-bromo-2,3-dihydrofuro[3,2-b]pyridin-3-yl)-N-methyl-1,3-dihydrofuro[3,4-c]quinoline-8-carboxamide] | 2070 nM | 37800 nM |
| CN(C(=O)c1cc2c3c(c(N)nc2cn1)COC3)C1COc2cc(OC(F)F)ccc21 (racemic) [Example 453, 4-amino-N-((3R)-6-(difluoromethoxy)-2,3-dihydro-1-benzofuran-3-yl)-N-methyl-1,3-dihydrofuro[3,4-c][1,7]naphthyridine-8-carboxamide and 4-amino-N-((3S)-6-(difluoromethoxy)-2,3-dihydro-1-benzofuran-3-yl)-N-methyl-1,3-dihydrofuro[3,4-c][1,7]naphthyridine-8-carboxamide] | 246 nM | 13300 nM |
| CN(C(=O)c1cc2c3c(c(N)nc2cn1)COC3)C1COc2cc(C(F)(F)F)ncc21 (racemic) [Example 454, 4-amino-N-methyl-N-((3R)-6-(trifluoromethyl)-2,3-dihydrofuro[3,2-c]pyridin-3-yl)-1,3-dihydrofuro[3,4-c][1,7]naphthyridine-8-carboxamide and 4-amino-N-methyl-N-((3S)-6-(trifluoromethyl)-2,3-dihydrofuro[3,2-c]pyridin-3-yl)-1,3-dihydrofuro[3,4-c][1,7]naphthyridine-8-carboxamide] | 3560 nM | 50000 nM |
| CN(C(=O)c1cc2c3c(c(N)nc2cn1)COC3)C1COc2cc(C(F)(F)F)cc(F)c21 (racemic) [Example 455, 4-amino-N-((3R)-4-fluoro-6-(trifluoromethyl)-2,3-dihydro-1-benzofuran-3-yl)-N-methyl-1,3-dihydrofuro[3,4-c][1,7]naphthyridine-8-carboxamide and 4-amino-N-((3S)-4-fluoro-6-(trifluoromethyl)-2,3-dihydro-1-benzofuran-3-yl)-N-methyl-1,3-dihydrofuro[3,4-c][1,7]naphthyridine-8-carboxamide] | 122 nM | 5620 nM |
| CN(C(=O)c1cc2c3c(c(N)nc2cn1)COC3)C1COc2cc(Br)cnc21 (racemic) [Example 458, 4-amino-N-((3R)-6-bromo-2,3-dihydrofuro[3,2-b]pyridin-3-yl)-N-methyl-1,3-dihydrofuro[3,4-c][1,7]naphthyridine-8-carboxamide and 4-amino-N-((3S)-6-bromo-2,3-dihydrofuro[3,2-b]pyridin-3-yl)-N-methyl-1,3-dihydrofuro[3,4-c][1,7]naphthyridine-8-carboxamide] | 5050 nM | 38500 nM |
| CN(C(=O)c1cc2c3c(c(N)nc2cc1F)COC3)C1COc2cc(OC(F)F)ccc21 (racemic) [Example 459, 4-amino-N-((3R)-6-(difluoromethoxy)-2,3-dihydro-1-benzofuran-3-yl)-7-fluoro-N-methyl-1,3-dihydrofuro[3,4-c]quinoline-8-carboxamide and 4-amino-N-((3S)-6-(difluoromethoxy)-2,3-dihydro-1-benzofuran-3-yl)-7-fluoro-N-methyl-1,3-dihydrofuro[3,4-c]quinoline-8-carboxamide] | 91 nM | 5540 nM |
| CN(C(=O)c1cc2c3c(c(N)nc2cc1F)COC3)C1COc2cc(C(F)(F)F)ncc21 (racemic) [Example 460, 4-amino-7-fluoro-N-methyl-N-((3R)-6-(trifluoromethyl)-2,3-dihydrofuro[3,2-c]pyridin-3-yl)-1,3-dihydrofuro[3,4-c]quinoline-8-carboxamide and 4-amino-7-fluoro-N-methyl-N-((3S)-6-(trifluoromethyl)-2,3-dihydrofuro[3,2-c]pyridin-3-yl)-1,3-dihydrofuro[3,4-c]quinoline-8-carboxamide] | 162 nM | 10800 nM |
